These results are taken from patent publication US20020022647A1, “2-(4-bromo or 4-iodo phenylamino) benzoic acid derivatives” (priority 1997, published 2002).

The target of data set [1] is GST-MEK (p45MEK) and GST-MAPK (p44MAP kinase) (Homo sapiens, UniProt Q02750). Kind of data set: Cascade assay for inhibitors of the MAP kinase pathway (In Vitro). The format is biochemical. To be noted: incorporation of 32P into myelin basic protein. How it is done: Cascade Assay for Inhibitors of the MAP Kinase Pathway
GST-MEK (p45MEK) and GST-MAPK (p44MAP kinase), sequence (Q02750 whole entry, the tested form may be a part): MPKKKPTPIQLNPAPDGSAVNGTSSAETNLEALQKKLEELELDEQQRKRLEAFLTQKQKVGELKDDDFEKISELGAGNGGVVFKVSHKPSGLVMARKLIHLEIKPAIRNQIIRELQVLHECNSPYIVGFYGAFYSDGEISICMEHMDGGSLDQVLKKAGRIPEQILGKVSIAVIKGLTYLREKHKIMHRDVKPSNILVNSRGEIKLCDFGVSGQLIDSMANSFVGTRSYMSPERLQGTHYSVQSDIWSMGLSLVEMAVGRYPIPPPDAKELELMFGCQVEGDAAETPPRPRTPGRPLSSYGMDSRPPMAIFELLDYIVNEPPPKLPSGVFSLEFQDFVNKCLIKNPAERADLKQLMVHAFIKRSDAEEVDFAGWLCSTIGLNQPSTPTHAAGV
Incorporation of ^32P into myelin basic protein (MBP) was assayed in the presence of a glutathione S-transferase fusion protein containing p44MAP kinase (GST-MAPK) and a glutathione S-transferase fusion protein containing p45MEK (GST-MEK). The assay solution contained 20 mM HEPES, pH 7.4, 10 mM MgCl2, 1 mM MnCl2, 1 mM EGTA, 50 μM [γ-^32P]ATP, 10 μg GST-MEK0.5 μg GST-MAPK and 40 μg MBP in a final volume of 100 μL. Reactions were stopped after 20 minutes by addition of trichloroacetic acid and filtered through a GF/C filter mat. ^32P retained on the filter mat was determined using a 1205 Betaplate. Compounds were assessed at 10 μM for ability to inhibit incorporation of ^32P.
To ascertain whether compounds were inhibiting GST-MEK or GST MAPK, two additional protocols were employed. In the first protocol, compounds were added to tubes containing GST-MEK, followed by addition of GST-MAPK, MBP and [γ-^32P]ATP. In the second protocol, compounds were added to tubes containing both GST-MEK and GST-MAPK, followed by MBP and [γ-^32P]ATP.

The subject of data set [2] is activation of MAP kinase in whole cells. Kind of data set: In Vivo (Cell Culture): whole cell MAP kinase assay. The data set is classed as cell-based. How it is done:
Whole Cell MAP Kinase Assay
To determine if compounds were able to block activation of MAP kinase in whole cells, the following protocol was used: Cells were plated in multi-well plates and grown to confluence. Cells were then serum-deprived overnight. Cells were exposed to the desired concentrations of compound or vehicle (DMSO) for 30 minutes, followed by addition of a growth factor, for example, PDGF (100 ng/mL). After a 5-minute treatment with the growth factor, cells were washed with PBS, then lysed in a buffer consisting of 70 mM NaCl, 10 mM HEPES (pH 7.4), 50 mM glycerol phosphate, and 1% Triton X-100. Lysates were clarified by centrifugation at 13,000× g for 10 minutes. Five micrograms of the resulting supernatants were incubated with 10 μg microtubule associated protein-2 (Map2) for 15 minutes at 30° C. in a final volume of 25 μL containing 50 mM Tris (pH 7.4), 10 mM MgCl2, 2 mM EGTA and 30 uM [γ-^32P]ATP. Reactions were terminated by addition of Laemmli sample buffer. Phosphorylated Map2 was resolved on 7.5% acrylamide gels and incorporated radioactivity determined by autoradiography and subsequent excision of the bands followed by scintillation counting.

By IC50 is commonly meant the point on the concentration scale where inhibition reaches its midpoint. A low value points to inhibition by little substance. Usually melting point stands for the temperature, or range, at which the solid turns liquid. By inhibition is commonly meant the relative decrease from the control value, in per cent.

`Cc1cc(I)ccc1Nc1ccc(Cl)cc1C(=O)NCCO` [Example 31, 5-Chloro-N-(2-hydroxyethl)-2-(4-iodo-2-methyl-phenylamino)-benzamide] returned a melting point of 120 to 121 °C. Further, the 50% inhibitory concentration (IC50) in data set [1] came out at 0.226 µM. `Cc1cc(I)ccc1Nc1ccc(Cl)cc1C(=O)NCC(=O)O` [Example 40, [5-Chloro-2-(4-iodo-2-methyl-phenylamino)-benzoylamno]-acetic acid]: 30 µM produced 30% inhibition in data set [2] (at 30 μM). The same compound registered a half-maximal inhibitory concentration (IC50) in data set [1] of 0.651 µM. With `Cc1cc(I)ccc1Nc1cc(F)ccc1CO` [Example 49, 4-Fluoro-2-(4-iodo-2-methyl-2henylamino)-benzyl alcohol], the melting point was in the range of 99 to 100.5 °C. In data set [1], this compound had a 50% inhibitory concentration (IC50) of 0.418 µM.

As to `Cc1cc(I)ccc1Nc1c(C(=O)NCCO)cc(Br)c(F)c1F` [Example 53, 5-Bromo-3,4-difluoro-N-(2-hydroxy-ethyl)-2-(4-iodo-2-methyl-phenylamino)-benzamide], the IC50 in data set [2] is 0.54 µM; in data set [1], 0.047 µM.

In data set [1], `Cc1cc(I)ccc1Nc1c(C(=O)NCCN2CCCCC2)cc(Br)c(F)c1F` [Example 55, 5-Bromo-3,4-difluoro-2-(4-iodo-2-methyl-phenylamino)-N-(2-piperidin-1-yl-ethyl)-benzamide] returned a concentration for half-maximal inhibition (IC50) of 0.114 µM. `Cc1cc(I)ccc1Nc1cc(F)ccc1C(=O)NCC(O)CO` (stereo not drawn) [Example 57, N-(2,3-Dihydroxy-propyl)-4-fluoro-2-(4-iodo-2-methyl-phenylamino)-benzamide] gave an IC50 in data set [1] of 0.399 µM.

`Cc1cc(I)ccc1Nc1ccc(F)cc1C(=O)NCCCN1CCN(CCO)CC1` [Example 90, 5-Fluoro-N-{3-[4-(2-hydroxy-ethyl)-piperazin-1-yl]-propyl}-2-(4-iodo-2-methyl-phenylamino)-benzamide] had a half-maximal inhibitory concentration (IC50) in data set [1] of 0.604 µM. On the same count and under the same terms, the same measure for `Cc1cc(I)ccc1Nc1ccc([N+](=O)[O-])cc1C(=O)NCc1ccncc1` [Example 91, 2-(4-Iodo-2-methyl-phenylamino)-5-nitro-N-pyridin-4-yl methyl-benzamide]: 2.071 µM; for `Cc1cc(I)ccc1Nc1ccc(Br)cc1C(=O)NCCCN1CCN(CCO)CC1` [Example 92, 5-Bromo-N-{3-[4-(2-hydroxy-ethyl)-piperazin-1-yl]-propyl}-2-(4-iodo-2-methyl-phenylamino)-benzamide]: 0.253 µM; for `CCN(CC)CCNC(=O)c1cc(Cl)ccc1Nc1ccc(I)cc1C` [Example 93, 5-Chloro-N-(2-diethylamino-ethyl)-2-(4-iodo-2-methyl-phenylamino)-benzamide]: 0.521 µM. The same measure, in the same setting: the same measure for `Cc1cc(I)ccc1Nc1ccc([N+](=O)[O-])cc1C(=O)N1CCC(O)C1` (stereo not drawn) [Example 95, (3-Hydroxy-pyrrolidin-1-yl)-[2-(4-iodo-2-methyl-phenylamino)-5-nitro-phenyl]-]: 1.001 µM; for `Cc1cc(I)ccc1Nc1ccc(Cl)cc1C(=O)NCCN1CCCC1` [Example 96, 5-Chloro-2-(4-iodo-2-methyl-phenylamino)-N-(2-pyrrolidin-1-yl-ethyl)-benzamide]: 0.374 µM. In data set [1], `Cc1cc(I)ccc1Nc1ccc(Br)cc1C(=O)N1CCC(O)C1` (stereo not drawn) [Example 100, [5-Bromo-2-(4-iodo-2-methyl-phenylamino)-phenyl]-(3-hydroxy-pyrrolidin-1-yl)-] had an IC50 of 1.994 µM.

On to `Cc1cc(I)ccc1Nc1ccc([N+](=O)[O-])cc1C(=O)NC1CCCCC1` [Example 184, N-Cyclohexyl-2-(4-iodo-2-methyl-phenylamino)-5-nitro-benzamide], for which, in data set [1], the IC50 is 0.278 µM. On the same count and under the same terms, to `Cc1cc(I)ccc1Nc1ccc(F)cc1C(=O)NOCc1ccccc1` [Example 186, N-Benzy1oxy-5-fluoro-2-(4-iodo-2-methyl-phenylamino)-benzamide] belongs 0.555 µM. The compound `Cc1cc(I)ccc1Nc1ccc(Cl)cc1C(=O)NCCO` [Example 187, 5-Chloro-N-(2-hydroxy-ethyl)-2-(4-iodo-2-methyl-phenylamino)-benzamide] displayed a 50% inhibitory concentration (IC50) in data set [1] of 0.561 µM. In data set [1], `Cc1cc(I)ccc1Nc1ccc(Br)cc1C(=O)NCCO` [Example 188, 5-Bromo-N-(2-hydroxy-ethyl)-2-(4-iodo-2-methyl-phenylamino)-benzamide] came in with a half-maximal inhibitory concentration (IC50) of 0.771 µM. Take `Cc1cc(I)ccc1Nc1ccc([N+](=O)[O-])cc1C(=O)N(C)c1ccccc1` [Example 189, 2-(4-Iodo-2-methyl-phenylamino)-N-methyl-5-nitro-N-phenyl-benzamide]: in data set [1], the IC50 is listed as 0.859 µM. Same read-out and setting: to `Cc1cc(I)ccc1Nc1ccc(Cl)cc1C(=O)N(C)c1ccccc1` [Example 190, 5-Chloro-2-(4-iodo-2-methyl-phenylamino)-N-methyl-N-phenyl-benzamide] belongs 0.921 µM; to `Cc1cc(I)ccc1Nc1ccc(I)cc1C(=O)NCCO` [Example 191, N-(2-Hydroxy-ethyl)-5-iodo-2-(4-iodo-2-methyl-phenylamino)-benzamide], 1.355 µM; to `Cc1cc(I)ccc1Nc1ccc(Cl)cc1C(=O)NC1CC1` [Example 192, 5-Chloro-N-cyclopropyl-2-(4-iodo-2-methyl-phenylamino)-benzamide], 1.797 µM. On the same count and under the same terms, to `C=CCNC(=O)c1cc(Cl)ccc1Nc1ccc(I)cc1C` [Example 193, N-Allyl-5-chloro-2-(4-iodo-2-methyl-phenylamino)-benzamide] belongs 2.902 µM. On the same count and under the same terms, the same measure for `Cc1cc(I)ccc1Nc1ccc(F)cc1C(=O)N(C)c1ccccc1` [Example 194, 5-Fluoro-2-(4-iodo-2-methyl-phenylamino)-N-methyl-N-phenyl-benzamide]: 4.952 µM. In data set [1], `Cc1cc(I)ccc1Nc1ccc([N+](=O)[O-])cc1C(=O)NCCO` [Example 195, N-(2-Hydroxy-ethyl)-2-(4-iodo-2-methyl-phenylamino)-s-nitro-benzamide] yielded a half-inhibitory concentration (IC50) of 12.8 µM. Consider `Cc1cc(I)ccc1Nc1ccccc1-c1nnn[nH]1` [Example 208], for which the melting point was 231 °C (dec.). For the same compound, the 50% inhibitory concentration (IC50) in data set [1] is listed as 1.215 µM. Turning to `Cc1cc(I)ccc1Nc1ccc([N+](=O)[O-])cc1-c1nnn[nH]1` [Example 209], the melting point lay in the range of 205 to 208 °C. The same compound displayed an IC50 in data set [1] of 1.372 µM. In data set [1], `O=C(O)c1cc(Br)c(F)c(F)c1Nc1ccc(I)cc1Cl` [Example 220, 5-Bromo-2-(2-chloro-4-iodo-phenylamino)-3,4-difluoro-benzoic acid] yielded a half-inhibitory concentration (IC50) of 0.029 µM.
